Test results: patent US10473662B2, “Diagnostic and prognostic markers for cancer” (Wake Forest University Health Sciences, priority 2009, dated 2019)

How the values were obtained:
[1] = target: T1, ferroportin (Homo sapiens, UniProt Q9NP59); test: Western blot of ferroportin in hepcidin-treated cells; format: cell-based; details: HME cells, 300 or 700 nM hepcidin for 6 hours (FIG. 3D)
T1 construct: endogenous in cells; host or cells: primary human mammary epithelial (HME) cells (Lonza)
T1 sequence (Q9NP59 1-571): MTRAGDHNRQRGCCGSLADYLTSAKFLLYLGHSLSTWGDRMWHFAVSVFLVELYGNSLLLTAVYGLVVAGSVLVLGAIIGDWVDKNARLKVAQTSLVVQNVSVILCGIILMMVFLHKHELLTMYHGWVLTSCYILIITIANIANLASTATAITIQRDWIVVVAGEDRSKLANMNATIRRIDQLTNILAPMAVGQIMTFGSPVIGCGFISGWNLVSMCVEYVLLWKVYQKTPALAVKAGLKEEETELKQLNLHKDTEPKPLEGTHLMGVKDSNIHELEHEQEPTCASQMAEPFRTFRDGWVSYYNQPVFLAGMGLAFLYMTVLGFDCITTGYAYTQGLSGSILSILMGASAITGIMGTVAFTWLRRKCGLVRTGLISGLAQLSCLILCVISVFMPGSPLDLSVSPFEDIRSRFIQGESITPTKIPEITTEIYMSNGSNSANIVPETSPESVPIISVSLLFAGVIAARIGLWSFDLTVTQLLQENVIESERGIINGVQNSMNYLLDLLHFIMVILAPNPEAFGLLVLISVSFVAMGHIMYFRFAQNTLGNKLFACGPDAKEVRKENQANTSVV
Experimental: (§1) Human mammary epithelial (HME) cells were obtained from Lonza (Rockland, Me.). HME cells transduced with h-TERT, SV40 T antigen and high levels of H-ras are termed R5 cells in this report and were a generous gift from the laboratory of Dr. Robert Weinberg, Boston, Mass. (14). All cells were maintained at 37° C. in a humidified atmosphere containing 5% CO2. Cells were maintained in Dulbecco's […] (DMEM-F12) medium (Gibco/BRL [Grand Island, N.Y.]) supplemented with L-glutamine, 10 μg/ml insulin, 10 ng/ml human epidermal growth factor, and 0.5 μg/ml hydrocortisone for 24 hrs prior to harvest. MCF7 and MCF10A cell lines were obtained from the Wake Forest University Comprehensive Cancer Center Tissue Culture Core facility. […]
(§2) Cells were washed once in phosphate-buffered saline (PBS) and scraped. […] Total protein concentrations were determined using BCA reagent (Pierce). […] Ferritin H was detected as previously described (49). Ferroportin was detected using anti-ferroportin-1 antibody (MTP-1, Alpha Diagnostics) followed by horseradish peroxidase conjugated goat anti-rabbit secondary antibody (Bio-Rad). […] Prohepcidin was detected using a rabbit polyclonal antibody (Hepcidin-25 antibody, ab75883, Abcam) followed by horseradish peroxidase conjugated goat anti-rabbit secondary antibody (Bio-Rad). […]

[2] = tested on: ferritin H; test: Western blot of ferritin H in hepcidin-treated cells; format: cell-based, human; details: HME cells, 300 nM or 700 nM hepcidin for 6 hours (FIG. 3C)
Experimental: as §1, §2

[3] = tested on: HME cells; test: Labile iron pool assay (calcein) in hepcidin-treated cells; format: cell-based, human; details: 700 nM hepcidin or vehicle control (FIG. 3B)
Experimental: as §1, with “facility. SUM149 and SUM102 cell lines were a generous gift of Dr. I. Berquin, Wake Forest University School of Medicine.” for “facility.”
The cellular labile iron pool (LIP) was measured with the fluorescent metallosensor calcein, essentially as described (20). […] Fluorescence was measured at 485 nm excitation and 535 nm emission with a fluorescence plate reader (fmax Fluorescence Microplate Reader, Molecular Devices). After the fluorescence signal was stabilized, SIH was added to remove iron from calcein, causing dequenching. The change in fluorescence following the addition of SIH (ΔF) was used as a measure of the labile iron pool.

“Hepcidin: Peptide hormone that binds ferroportin and triggers its degradation; obtained from Peptides International, dissolved in water” was tested, and the “ferroportin protein (Western blotting)” value [1] was “Ferroportin is degraded”, the “levels of ferritin protein (ferritin H, Western blotting)” value [2] was “increases levels of ferritin protein” and the labile iron pool [3] was “increases the labile iron pool”.
